Patent publication US3985732A, “1,2,3,11A-Tetrahydro-10-methyl-5H-pyrrolo[2,1-c][1,4]ben zodiazepin-5,11(10H)-diones” (American Cyanamid Company, priority 1975, dated 1976)

Tested on: clonic seizures caused by pentylenetetrazole in rats
Assay: Protection against clonic seizures caused by pentylenetetrazole in rats (oral)
Format: in vivo, rat
Conditions: for effectiveness as anxiolytic agents versus closest prior art compound (respective dextrorotatory and racemic forms without 10-methyl): pentylenetetrazole test in rats, compared with Compounds 4 and 5
Experimental: The anti-anxiety properties of the compounds of the present invention have been established in a test which indicates anxiolytic activity by a measure of protection from convulsions resulting from the administration of pentylenetetrazol. Graded dose levels of the dextro and racemic forms of the 1,2,3,11a-tetrahydro-10-methyl-5H-pyrrolo[2,1-c][1,4]benzodiazepin-5,11(10H)-diones are administered orally, in a 2% starch vehicle, to groups of at least 5 rats. At the estimated time of peak effect, the rats are treated intravenously with pentylenetetrazole at a dose of 21 to 23 mg/kg of body weight. This dose is estimated to cause clonic seizures in 99% of unprotected rats. The effective dose of the test compound for protection of 50% of the animals is calculated by the method of J. T. Litchfield and F. Wilcoxon, Journal of Pharmacology and Experimental Therapeutics, 96, 99 (1949). The results are given in the table which follows in comparison with Librium (chlordiazepoxide), Valium (diazepam) and the dextro and racemic forms of 1,2,3,11a-tetrahydro-5H-pyrrolo-[2,1-c] [1,4]benzodiazepin-5,11(10H)-dione (U.S. Pat. No. 3,732,212) all of which were tested in exactly the same manner. It has been reported [R. T. Hill and D. H. Tedeschi, "Animal Testing and Screening Procedures in Evaluating Psychotropic Drugs" in An Introduction to Psychopharmacology, Eds. R. R. Rech and K. E. Moore, Raven Press, New York, pp. 237-288 (1971)] that there is a high degree of correlation between antagonism of pentylenetetrazole seizures in rats and antianxiety effects in higher warm-blooded animals.

CN1C(=O)C2CCCN2C(=O)c2ccccc21 (racemic) [Compound 3, Racemic (DL) 1,2,3,11a-Tetrahydro-10-methyl-5H-pyrrolo[2,1-c][1,4]benzodiazepin-5,11(10H)-dione]
effectiveness as anxiolytic agents versus closest prior art compound (respective dextrorotatory and racemic forms without 10-methyl): far more effective

CN1C(=O)[C@@H]2CCCN2C(=O)c2cc(F)ccc21 [Dextrorotatory 7-Fluoro-1,2,3,11a-tetrahydro-10-methyl-5H-pyrrolo[2,1-c][1,4]benzodiazepin-5,11(10H)-dione]
ED50 (Rattus norvegicus, 2% starch vehicle, at least 5 rats per group, pentylenetetrazole 21 to 23 mg/kg intravenously at estimated time of peak effect, Litchfield and Wilcoxon, read-out: Medium Effective Oral Dose ED50, protection against clonic seizures caused by pentylenetetrazole): 4 mg/kg | effectiveness as anxiolytic agents versus closest prior art compound (respective dextrorotatory and racemic forms without 10-methyl): far more effective

CN1C(=O)[C@@H]2CCCN2C(=O)c2ccccc21 [Compound 2, Dextrorotatory 1,2,3,11a-Tetrahydro-10-methyl-5H-pyrrolo[2,1-c][1,4]benzodiazepin-5,11(10H)-dione]
effectiveness as anxiolytic agents versus closest prior art compound (respective dextrorotatory and racemic forms without 10-methyl): far more effective
